Patent US20240109853A1 (Shanghai Yao Yuan Biotechnology Co., Ltd., priority 2020, published 2024)

Key:
ALPK1 = ALPK1 (Homo sapiens (Human), UniProt Q96QP1); test: ALPK1 in vitro kinase assay (HTRF of TIFA phosphorylation); type: biochemical
[1] = test system: ALPK1-dependent NFκB reporter gene activation in HEK293 cells stably expressing an NF-kB reporter (G9 cells); test: NFκB gene reporter alkaline phosphatase assay; type: cell-based; details: Homo sapiens, HEK293; read-out: NFkB assay IC50
How it was run: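 Read-out: chromogenic pNPP turnover by NF-kB-driven alkaline phosphatase in G9 cells (HEK293, stable reporter). Compound pre-incubation 30 min before agonist D-glycero-D-manno-6-fluoro-heptose-1β-S-ADP. IC50 by four-parameter logistic regression.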

Sequence of ALPK1 (Q96QP1 whole entry): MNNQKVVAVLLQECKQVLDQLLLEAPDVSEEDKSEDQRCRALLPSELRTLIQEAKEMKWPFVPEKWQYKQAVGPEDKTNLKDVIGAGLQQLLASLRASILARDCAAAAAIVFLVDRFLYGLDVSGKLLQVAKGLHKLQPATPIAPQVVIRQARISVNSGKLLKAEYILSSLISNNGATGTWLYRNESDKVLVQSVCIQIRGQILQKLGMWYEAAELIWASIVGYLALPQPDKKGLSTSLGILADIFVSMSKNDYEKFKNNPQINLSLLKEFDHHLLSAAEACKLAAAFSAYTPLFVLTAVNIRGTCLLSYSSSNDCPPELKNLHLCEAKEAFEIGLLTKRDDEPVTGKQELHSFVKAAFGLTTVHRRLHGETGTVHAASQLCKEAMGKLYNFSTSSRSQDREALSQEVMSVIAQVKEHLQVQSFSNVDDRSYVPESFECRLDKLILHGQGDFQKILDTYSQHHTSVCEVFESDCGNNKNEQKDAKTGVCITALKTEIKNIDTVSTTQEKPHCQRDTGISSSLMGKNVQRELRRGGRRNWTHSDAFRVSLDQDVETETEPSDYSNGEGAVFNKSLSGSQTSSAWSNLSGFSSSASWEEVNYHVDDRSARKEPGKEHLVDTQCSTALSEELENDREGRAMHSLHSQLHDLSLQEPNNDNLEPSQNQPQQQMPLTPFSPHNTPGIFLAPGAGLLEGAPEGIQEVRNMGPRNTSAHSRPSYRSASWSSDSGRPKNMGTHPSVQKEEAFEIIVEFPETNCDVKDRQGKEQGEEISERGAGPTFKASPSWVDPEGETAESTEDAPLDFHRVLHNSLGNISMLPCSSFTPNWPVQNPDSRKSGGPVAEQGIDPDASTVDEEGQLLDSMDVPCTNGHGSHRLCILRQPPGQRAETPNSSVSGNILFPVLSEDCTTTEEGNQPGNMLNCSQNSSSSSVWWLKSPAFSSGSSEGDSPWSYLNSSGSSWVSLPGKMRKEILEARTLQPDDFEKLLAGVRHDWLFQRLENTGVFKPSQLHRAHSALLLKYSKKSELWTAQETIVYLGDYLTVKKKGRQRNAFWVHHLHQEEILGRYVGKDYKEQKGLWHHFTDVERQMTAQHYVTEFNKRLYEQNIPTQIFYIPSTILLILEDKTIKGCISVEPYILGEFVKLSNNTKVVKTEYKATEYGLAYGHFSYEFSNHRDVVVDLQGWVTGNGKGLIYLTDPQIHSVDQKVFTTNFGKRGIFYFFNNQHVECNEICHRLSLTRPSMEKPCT

SMILES	IC50 (ALPK1)	IC50 [1]
COc1ccc(C(C)(C)c2csc(NC(=O)NCc3ccc(CN4CCNCC4)c(F)c3)n2)cc1 [Example A037, 1-(3-fluoro-4-(piperazin-1-ylmethyl)benzyl)-3-(4-(2-(4-methoxyphenyl)propan-2-yl)thiazol-2-yl)urea]	57 nM	2510 nM
CC(C)(c1ccc(Br)cc1)c1csc(NC(=O)NCc2cnc(N3CCNCC3)c(F)c2)n1 [Example A038, 1-(4-(2-(4-bromophenyl)propan-2-yl)thiazol-2-yl)-3-((5-fluoro-6-(piperazin-1-yl)pyridin-3-yl)methyl)urea]	30 nM	1660 nM
CCC(C)(c1ccc(Br)cc1)c1csc(NC(=O)NCc2ccc(N3CCNCC3)cc2)n1 (stereo not drawn) [Example A039, 1-(4-(2-(4-bromophenyl)butan-2-yl)thiazol-2-yl)-3-(4-(piperazin-1-yl)benzyl)urea]	189 nM	711 nM
COc1ccc(C(C)(C)c2csc(NC(=O)NCc3cc(F)c(N4CCNCC4)c(F)c3)n2)cc1 [Example A040, 1-(3,5-difluoro-4-(piperazin-1-yl)benzyl)-3-(4-(2-(4-methoxyphenyl)propan-2-yl)thiazol-2-yl)urea]	45 nM	500 nM
COc1ccc(C(C)(C)c2csc(NC(=O)NCc3ccc(NC4CCNCC4)cc3)n2)cc1 [Example A041, 1-(4-(2-(4-methoxyphenyl)propan-2-yl)thiazol-2-yl)-3-(4-(piperidin-4-ylamino)benzyl)urea]	23 nM	1860 nM
COc1ccc(C(C)(C)c2csc(NC(=O)NCc3ccc(C(=O)NC4CCNCC4)cc3)n2)cc1 [Example A042, 4-((3-(4-(2-(4-methoxyphenyl)propan-2-yl)thiazol-2-yl)ureido)methyl)-N-(piperidin-4-yl)benzamide]	15 nM	1000 nM
CC(c1ccc(Br)cc1)c1csc(NC(=O)NCc2ccc(N3CCNCC3)cc2)n1 (stereo not drawn) [Example A044, 1-(4-(1-(4-bromophenyl)ethyl)thiazol-2-yl)-3-(4-(piperazin-1-yl)benzyl)urea]	147 nM	1110 nM
O=C(NCc1ccc(N2CCNCC2)cc1)Nc1nc(C2(c3ccc(Br)cc3)CCCC2)cs1 [Example A045, 1-(4-(1-(4-bromophenyl)cyclopentyl)thiazol-2-yl)-3-(4-(piperazin-1-yl)benzyl)urea]	24 nM	1070 nM
CC(C)(c1ccc(Cl)cc1)c1csc(NC(=O)NCc2ccc(N3CCNCC3)cc2)n1 [Example A046, 1-(4-(2-(4-chlorophenyl)propan-2-yl)thiazol-2-yl)-3-(4-(piperazin-1-yl)benzyl)urea]	79 nM	1060 nM
CC(C)(c1ccc(F)cc1)c1csc(NC(=O)NCc2ccc(N3CCNCC3)cc2)n1 [Example A047, 1-(4-(2-(4-fluorophenyl)propan-2-yl)thiazol-2-yl)-3-(4-(piperazin-1-yl)benzyl)urea]	167 nM	2100 nM
CC(C)(c1ccc(Br)cc1)c1csc(NC(=O)NCc2ccc(N3CCNCC3)cc2Cl)n1 [Example A048, 1-(4-(2-(4-bromophenyl)propan-2-yl)thiazol-2-yl)-3-(2-chloro-4-(piperazin-1-yl)benzyl)urea]	138 nM	1530 nM
CC(C)(c1ccc(Br)cc1)c1csc(NC(=O)NCc2ccc(N3CCNCC3)c(C(F)(F)F)c2)n1 [Example A049, 1-(4-(2-(4-bromophenyl)propan-2-yl)thiazol-2-yl)-3-(4-(piperazin-1-yl)-3-(trifluoromethyl)benzyl) urea]	119 nM	800 nM
CC(C)(c1ccc(Br)cc1)c1csc(NC(=O)NCc2ccc(N3CCNCC3)c(F)c2)n1 [Example A050, 1-(4-(2-(4-bromophenyl)propan-2-yl)thiazol-2-yl)-3-(3-fluoro-4-(piperazin-1-yl)benzyl)urea]	26 nM	1210 nM
Cc1cc(N2CCNCC2)ccc1CNC(=O)Nc1nc(C(C)(C)c2ccc(Br)cc2)cs1 [Example A051, 1-(4-(2-(4-bromophenyl)propan-2-yl)thiazol-2-yl)-3-(2-methyl-4-(piperazin-1-yl)benzyl)urea]	125 nM	290 nM
CC(C)(c1ccc(Br)cc1)c1csc(NC(=O)NCc2ccc(N3CCNCC3)c(C(N)=O)c2)n1 [Example A052, 5-((3-(4-(2-(4-bromophenyl)propan-2-yl)thiazol-2-yl)ureido)methyl)-2-(piperazin-1-yl)benzamide]	24 nM	1960 nM
COc1ccc(C(C)(C)c2csc(NC(=O)NCc3ccc(N4CCNCC4)cc3)n2)cc1 [Example A053, 1-(4-(2-(4-methoxyphenyl)propan-2-yl)thiazol-2-yl)-3-(4-(piperazin-1-yl)benzyl)urea]	43 nM	760 nM
COc1ccc(C(C)(C)c2csc(NC(=O)NCc3ccc(N4CCNCC4)c(F)c3)n2)cc1 [Example A054, 1-(3-fluoro-4-(piperazin-1-yl)benzyl)-3-(4-(2-(4-methoxyphenyl)propan-2-yl)thiazol-2-yl)urea]	30 nM	880 nM

SMILES	IC50 (ALPK1)	IC50 [1]
COCCOc1cc(CNC(=O)Nc2nc(C(C)(C)c3ccc(Br)cc3)cs2)ccc1N1CCNCC1 [Example A055, 1-(4-(2-(4-bromophenyl)propan-2-yl)thiazol-2-yl)-3-(3-(2-methoxyethoxy)-4-(piperazin-1-yl)benzyl)urea]	182 nM	4700 nM
CC(O)(c1ccc(Br)cc1)c1csc(NC(=O)NCc2ccc(N3CCNCC3)c(F)c2)n1 (stereo not drawn) [Example A056, 1-(4-(1-(4-bromophenyl)-1-hydroxyethyl)thiazol-2-yl)-3-(3-fluoro-4-(piperazin-1-yl)benzyl)urea]	176 nM	1060 nM
COc1ccc(C(C)(C)c2csc(NC(=O)NCc3ccc(N4CCNCC4)c(CO)c3)n2)cc1 [Example A058, 1-(3-(hydroxymethyl)-4-(piperazin-1-yl)benzyl)-3-(4-(2-(4-methoxyphenyl)propan-2-yl)thiazol-2-yl)urea]	130 nM	3100 nM
COc1ccc(C(C)(C)c2csc(NC(=O)NCc3ccc(N4CCNCC4)c(C(N)=O)c3)n2)cc1 [Example A060, 5-((3-(4-(2-(4-methoxyphenyl)propan-2-yl)thiazol-2-yl)ureido)methyl)-2-(piperazin-1-yl)benzamide]	8 nM	4800 nM
CC(C)(c1ccc(Br)cc1)c1csc(NC(=O)NCCCN)n1 [Example A061, 1-(3-aminopropyl)-3-(4-(2-(4-bromophenyl)propan-2-yl)thiazol-2-yl)urea]	195 nM	1990 nM
COc1ccc(C(C)(C)c2csc(NC(=O)NCc3ccc(N4CC5CC4CN5)cc3)n2)cc1 (stereo not drawn) [Example A062, 1-(4-(2,5-diazabicyclo[2.2.1]heptan-2-yl)benzyl)-3-(4-(2-(4-methoxyphenyl)propan-2-yl)thiazol-2-yl)urea]	60 nM	1330 nM
COc1ccc(C(C)(C)c2csc(NC(=O)NCc3ccc(N4CCNC(C)C4)c(C(N)=O)c3)n2)cc1 (stereo not drawn) [Example A063, 5-((3-(4-(2-(4-methoxyphenyl)propan-2-yl)thiazol-2-yl)ureido)methyl)-2-(3-methylpiperazin-1-yl)benzamide]	29 nM	2910 nM
COc1ccc(C(C)(C)c2csc(NC(=O)NCc3ccc(N4CC5CC4CN5)c(C(N)=O)c3)n2)cc1 (stereo not drawn) [Example A064, 2-(2,5-diazabicyclo[2.2.1]heptan-2-yl)-5-((3-(4-(2-(4-methoxyphenyl)propan-2-yl)thiazol-2-yl)ureido)methyl)benza-mide]	41 nM	19700 nM
CNC(=O)c1cc(CNC(=O)Nc2nc(C(C)(C)c3ccc(OC)cc3)cs2)ccc1N1CCNCC1 [Example A065, 5-((3-(4-(2-(4-methoxyphenyl)propan-2-yl)thiazol-2-yl)ureido)methyl)-N-methyl-2-(piperazin-1-yl)benzamide]	30 nM	4440 nM
CC(C)(c1ccc(Br)cc1)c1csc(NC(=O)NCCS(C)(=O)=O)n1 [Example A066, 1-(4-(2-(4-bromophenyl)propan-2-yl)thiazol-2-yl)-3-(2-(methylsulfonyl)ethyl)urea]	126 nM	10500 nM
CC(C)(c1ccc(I)cc1)c1csc(NC(=O)NCc2ccc(N3CCNCC3)cc2)n1 [Example A067, 1-(4-(2-(4-iodophenyl)propan-2-yl)thiazol-2-yl)-3-(4-(piperazin-1-yl)benzyl)urea]	28 nM	1110 nM
COc1ccc(C(C)(C)c2csc(NC(=O)NCCCC(=O)NC3CCN(C)CC3)n2)cc1 [Example A070, 4-(3-(4-(2-(4-methoxyphenyl)propan-2-yl)thiazol-2-yl)ureido)-N-(1-methylpiperidin-4-yl)butanamide]	140 nM	16900 nM
COc1ccc(C(C)(C)c2csc(NC(=O)NCCOCCN3CCC(N)C3)n2)cc1 (stereo not drawn) [Example A072, 1-(2-(2-(3-aminopyrrolidin-1-yl)ethoxy)ethyl)-3-(4-(2-(4-methoxyphenyl)propan-2-yl)thiazol-2-yl)urea]	143 nM	1450 nM
CC(NC(=O)Nc1nc(C(C)(C)c2ccc(Br)cc2)cs1)c1ccc(N2CCNCC2)cc1 (stereo not drawn) [Example A073, 1-(4-(2-(4-bromophenyl)propan-2-yl)thiazol-2-yl)-3-(1-(4-(piperazin-1-yl)phenyl)ethyl)urea]	85 nM	2790 nM
Cc1ccc(C(C)(C)c2csc(NC(=O)NCc3ccc(N4CCNCC4)cc3)n2)cc1 [Example A075, 1-(4-(piperazin-1-yl)benzyl)-3-(4-(2-(p-tolyl)propan-2-yl)thiazol-2-yl)urea]	25 nM	267 nM
CCC(C)(c1ccc(OC)cc1)c1csc(NC(=O)NC(C)c2ccc(N3CCNCC3)cc2)n1 (stereo not drawn) [Example A076, 1-(4-(2-(4-methoxyphenyl)butan-2-yl)thiazol-2-yl)-3-(1-(4-(piperazin-1-yl)phenyl)ethyl)urea]	147 nM	4480 nM
